Measured values reported in patent US9617244B2, “Antibacterial quinoline derivatives” (JANSSEN PHARMACEUTICA NV, priority 2012, dated 2017).
In brackets after ≈: the same amount, converted by molar mass.

Key:
[1] = test system: Staphylococcus aureus (ATCC29213); experiment: In-vitro anti-bacterial activity, microtitre plate assay, IC90 determination (non-mycobacterial strains); assay type: cell-based; conditions: 90% inhibitory concentration for bacterial growth, resazurin fluorescence; for IC90 STA B29213: 24 hours; for IC90: Staphylococcus aureus, ATCC29213, 24 h, read-out: IC90 STA B29213
Description: D.2. In-Vitro Method for Testing Compounds for Anti-Bacterial Activity Against Various Non-Mycobacterial Strains
Preparation of Bacterial Suspensions for Susceptibility Testing:
The bacteria used in this study were grown overnight in flasks containing 100 ml Mueller-Hinton Broth (Becton Dickinson—cat. no. 275730) in sterile de-ionized water, with shaking, at 37° C. Stocks (0.5 ml/tube) were stored at −70° C. until use. Bacteria titrations were performed in microtiter plates to detect the TCID50, in which TCID50 represents the dilution that gives rise to bacterial growth in 50% of inoculated cultures. In general, an inoculum level of approximately 100 TCID50 was used for susceptibility testing.
Anti Bacterial Susceptibility Testing: IC90 Determination
Flat-bottom, sterile 96-well plastic microtiter plates were filled with 180 μl of sterile deionized water, supplemented with 0.25% BSA. Subsequently, stock solutions (7.8× final test concentration) of compounds were added in 45 μl volumes in column 2 Serial five-fold dilutions (45 μl in 180 μl) were made directly in the microtiter plates from column 2 to reach column 11. Untreated control samples with (column 1) and without (column 12) inoculum were included in each microtiter plate. Depending on the bacteria type, approximately 10 to 60 CFU per well of bacteria inoculum (100 TCID50), in a volume of 100 μl in 2.8× Mueller-Hinton broth medium, was added to the rows A to H, except column 12. The same volume of broth medium without inoculum was added to column 12 in row A to H. The cultures were incubated at 37° C. for 24 hours under a normal atmosphere (incubator with open air valve and continuous ventilation). At the end of incubation, one day after inoculation, the bacterial growth was quantitated fluorometrically. Therefore resazurin (0.6 mg/ml) was added in a volume of 20 μl to all wells 3 hours after inoculation, and the plates were re-incubated overnight. A change in colour from blue to pink indicated the growth of bacteria. The fluorescence was read in a computer-controlled fluorometer (Cytofluor Biosearch) at an excitation wavelength of 530 nm and an emission wavelength of 590 nm. The % growth inhibition achieved by the compounds was calculated according to standard methods. The IC90 (expressed in μg/ml) was defined as the 90% inhibitory concentration for bacterial growth.

[2] = test system: Mycobacterium smegmatis (ATCC607); experiment: In-vitro anti-bacterial activity against strain M. Smegmatis ATCC607; assay type: cell-based; conditions: 90% inhibitory concentration for bacterial growth, Alamar Blue fluorescence; for IC90 MSM 607: 48 hours; for IC90: Mycolicibacterium smegmatis, ATCC607, 48 h, read-out: IC90 MSM 607
Description: D.1. In-Vitro Method for Testing Compounds for Anti-Bacterial Activity Against Strain M. Smegmatis ATCC607
Flat-bottom, sterile 96-well plastic microtiter plates were filled with 180 μl of sterile deionized water, supplemented with 0.25% BSA. Subsequently, stock solutions (7.8× final test concentration) of compounds were added in 45 μl volumes to a series of duplicate wells in column 2 so as to allow evaluation of their effects on bacterial growth. Serial five-fold dilutions (45 μl in 180 μl) were made directly in the microtiter plates from column 2 to 11 using a customised robot system (Zymark Corp., Hopkinton, Mass.). Pipette tips were changed after every 3 dilutions to minimize pipetting errors with high hydrophobic compounds. Untreated control samples with (column 1) and without (column 12) inoculum were included in each microtiter plate. Approximately 250 CFU per well of bacteria inoculum, in a volume of 100 μl in 2.8× Mueller-Hinton broth medium, was added to the rows A to H, except column 12. The same volume of broth medium without inoculum was added to column 12 in row A to H. The cultures were incubated at 37° C. for 48 hours in a humidified 5% CO2 atmosphere (incubator with open air valve and continuous ventilation). At the end of incubation, two days after inoculation, the bacterial growth was quantitated fluorometrically. Therefore Alamar Blue (10×) was added to all wells in a volume of 20 μl and plates were incubated for another 2 hours at […]
The fluorescence was read in a computer-controlled fluorometer (Cytofluor, Biosearch) at an excitation wavelength of 530 nm and an emission wavelength of 590 nm (gain 30). The percentage growth inhibition achieved by the compounds was calculated according to standard methods and expressed as IC90 (μg/ml) which defines the 90% inhibitory concentration for bacterial growth.

SMILES	IC90 STA B29213 [1] [µg/mL]	IC90 MSM 607 [2] [µg/mL]	IC90 [1] [µg/mL]	IC90 [2] [µg/mL]
COc1nc2ccc(Cl)cc2cc1C(c1ccc(Cl)cc1)C1(O)CCNC(c2ccc(F)cc2C)C1 (single isomer, unassigned) [Compound 1]	3.32 (≈ 6.32 µM)	1.66 (≈ 3.16 µM)		
COc1nc2ccc(Cl)cc2cc1C(c1ccc(Cl)cc1)C1(O)CCNC(c2ccc(F)cc2C)C1 (single isomer, unassigned) [Compound 4]	2.63 (≈ 5.01 µM)	2.09 (≈ 3.98 µM)		
COc1nc2ccc(Br)cc2cc1C(n1cccn1)[C@@]1(O)CCN[C@H](Cc2ccccc2)C1 (stereo in doubt) [Compound 67]			14.9 (≈ 29.4 µM)	7.47 (≈ 14.7 µM)
CS(=O)(=O)c1ccc2[nH]c(=O)c(C(c3ccc(Cl)cc3)C3(O)CCN[C@@H](Cc4ccc(F)c(F)c4)C3)cc2c1 (stereo in doubt) [Compound 205]	>15.22	>15.22		
CS(=O)(=O)c1ccc2[nH]c(=O)c(C(c3ccc(Cl)cc3)C3(O)CCN[C@@H](Cc4ccc(F)c(F)c4)C3)cc2c1 (stereo in doubt) [Compound 206]	>15.08	>15.08		
CS(=O)(=O)c1ccc2[nH]c(=O)c(C(c3ccc(Cl)cc3)C3(O)CCN[C@@H](Cc4ccc(F)c(F)c4)C3)cc2c1 (stereo in doubt) [Compound 207]	3.83 (≈ 6.68 µM)	3.83 (≈ 6.68 µM)		
CS(=O)(=O)c1ccc2[nH]c(=O)c(C(c3ccc(Cl)cc3)C3(O)CCN[C@@H](Cc4ccc(F)c(F)c4)C3)cc2c1 (stereo in doubt) [Compound 208]	7.60 (≈ 13.3 µM)	9.57 (≈ 16.7 µM)		
O=c1[nH]c2ccc(Cl)cc2cc1C(c1ccc(Cl)cc1)C1(O)CCNC(Cc2ccccc2)C1 (stereo not drawn) [Compound 5]	1.67 (≈ 3.38 µM)	1.67 (≈ 3.38 µM)		
O=c1[nH]c2ccc(Br)cc2cc1C(c1ccc(Cl)cc1)C1(O)CCNC(CC2CCCCC2)C1 (stereo not drawn) [Compound 6]	1.83 (≈ 3.36 µM)	9.18 (≈ 16.9 µM)		
Cc1cc(F)ccc1C1CC(O)(C(c2ccc(Cl)cc2)c2cc3cc(Br)ccc3[nH]c2=O)CCN1 (stereo not drawn) [Compound 7]	1.49 (≈ 2.68 µM)	0.94 (≈ 1.69 µM)		
COc1nc2ccccc2cc1C(c1ccc(Cl)cc1)C1(O)CCNC(CO)C1 (stereo not drawn) [Compound 10]			> 10.4	> 10.4
COc1nc2ccc(F)cc2cc1C(c1ccc(Cl)cc1)C1(O)CCN(C(C)c2ccccc2)C(CO)C1 (stereo not drawn) [Compound 14]	6.74 (≈ 12.6 µM)	3.79 (≈ 7.08 µM)		
COc1nc2ccccc2cc1C(c1ccccc1)C1(O)CCNC(c2ccc(F)cc2C)C1 (stereo not drawn) [Compound 16]			7.21 (≈ 15.8 µM)	9.08 (≈ 19.9 µM)
COc1nc2ccc(Br)cc2cc1C(c1ccc(Cl)cc1)C1(O)CCN(C)C(Cc2ccccc2)C1 (stereo not drawn) [Compound 18]			20 (≈ 35.3 µM)	10 (≈ 17.7 µM)
COc1nc2ccccc2cc1C(c1ccc(Cl)cc1)C1(O)CCNC(Cc2ccccc2)C1 (stereo not drawn) [Compound 19]			5.95 (≈ 12.6 µM)	3.76 (≈ 7.95 µM)
COc1nc2ccc(Cl)cc2cc1C(c1ccc(Cl)cc1)C1(O)CCN(C(C)c2ccccc2)C(c2cccnc2)C1 (stereo not drawn) [Compound 22]			> 15	> 15
COc1nc2ccc(Br)cc2cc1C(c1ccc(Cl)cc1)C1(O)CCN(Cc2ccccc2)CC1C (stereo not drawn) [Compound 25]	>19.87			> 19.9
COc1nc2ccc(Br)cc2cc1C(c1ccc(Cl)cc1)C1(O)CCN(Cc2ccccc2)CC1C (stereo not drawn) [Compound 26]	>44.79			

SMILES	IC90 STA B29213 [1] [µg/mL]	IC90 MSM 607 [2] [µg/mL]	IC90 [1] [µg/mL]	IC90 [2] [µg/mL]
COc1nc2ccccc2cc1C(c1ccc(Cl)cc1)C1(O)CCNC(c2cccnc2)C1 (stereo not drawn) [Compound 27]			11.6 (≈ 25.1 µM)	7.29 (≈ 15.8 µM)
COc1nc2ccc(Cl)cc2cc1C(c1ccc(Cl)cc1)C1(O)CCNC(c2cccnc2)C1 (stereo not drawn) [Compound 28]	6.22 (≈ 12.6 µM)	3.12 (≈ 6.31 µM)		
COc1nc2ccc(Br)cc2cc1C(c1ccc(Cl)cc1)C1(O)CCNC(Cc2ccccc2)C1 (stereo not drawn) [Compound 32]	3.48 (≈ 6.31 µM)	1.56 (≈ 2.83 µM)		
Cc1cc(F)ccc1C1CC(O)(C(c2cccc(Cl)c2)c2cc3cc(S(C)(=O)=O)ccc3[nH]c2=O)CCN1 (stereo not drawn) [Compound 42]	7.34 (≈ 13.2 µM)	2.60 (≈ 4.68 µM)		
Cc1cc(F)ccc1C1CC(O)(C(c2ccccc2)c2cc3cc(Br)ccc3[nH]c2=O)CCN1 (stereo not drawn) [Compound 43]	3.48 (≈ 6.67 µM)	3.48 (≈ 6.67 µM)		
COc1nc2ccc(Br)cc2cc1C(c1ccc(Cl)cc1)C1(O)CCNCC1Cc1cccc(F)c1 (stereo not drawn) [Compound 48]	0.90 (≈ 1.58 µM)	0.72 (≈ 1.26 µM)		
O=c1[nH]c2ccc(Br)cc2cc1C(c1ccc(Cl)cc1)C1(O)CCNCC1Cc1cccc(F)c1 (stereo not drawn) [Compound 49]		1.79 (≈ 3.22 µM)	2.25 (≈ 4.05 µM)	
COc1nc2ccc(SC)cc2cc1C(c1cccc(Cl)c1)C1(O)CCNC(Cc2ccc(F)cc2F)C1 (stereo not drawn) [Compound 50]			1.15 (≈ 2.07 µM)	1.15 (≈ 2.07 µM)
COc1nc2ccc(Br)cc2cc1C(c1ccc(Cl)cc1)C1(O)CCNC(Cc2ccc(F)cc2F)C1 (stereo not drawn) [Compound 51]	2.34 (≈ 3.98 µM)	1.17 (≈ 1.99 µM)		
COc1nc2ccc(F)cc2cc1C(c1ccc(Cl)cc1)C1(O)CCNC(Cc2ccccc2)C1 (stereo not drawn) [Compound 54]	3.54 (≈ 7.21 µM)	1.77 (≈ 3.6 µM)		
COc1nc2ccc(F)cc2cc1C(c1ccc(Cl)cc1)C1(O)CCNC(Cc2ccccc2)C1 (stereo not drawn) [Compound 55]	6.19 (≈ 12.6 µM)	3.90 (≈ 7.94 µM)		
COc1nc2ccc(Br)cc2cc1C(c1ccccc1)C1(O)CCNC(Cc2ccccc2)C1 (stereo not drawn) [Compound 72]			4.11 (≈ 7.94 µM)	
COc1nc2ccc(-c3cccnc3)cc2cc1C(c1ccc(Cl)cc1)C1(O)CCNC(Cc2ccccc2)C1 (stereo not drawn) [Compound 80]			4.37 (≈ 7.94 µM)	
CC1CC(O)(C(c2ccc(Cl)cc2)c2cc3cc(Br)ccc3[nH]c2=O)CCN1 (stereo not drawn) [Compound 132]		9.21 (≈ 19.9 µM)		
COc1nc2ccc(F)cc2cc1C(c1ccc(Cl)cc1)C1(O)CCN(C(C)c2ccccc2)C(CO)C1 (stereo not drawn) [Compound 437]	13.44 (≈ 25.1 µM)			
COc1nc2ccc(Cl)cc2cc1C(c1ccc(Cl)cc1)C1(O)CCNC(c2ccc3ccccc3c2)C1 (stereo not drawn) [Compound 440]	8.61 (≈ 15.8 µM)			
COc1nc2ccc(Cl)cc2cc1C(c1ccc(Cl)cc1)C1(O)CCNC(c2ccc3ccccc3c2)C1 (stereo not drawn) [Compound 441]	12.17 (≈ 22.4 µM)			
